From US20070225356A1, “Preventive and/or Therapeutic Agent for Chronic Sinusitis” (Kyowa Hakko Kogo Co., Ltd, priority 2004, published 2007)
Counter-ions that a name gives are not always drawn.

Key:
[1] = test system: patient diagnosed as chronic sinusitis; test: Test Example 1: effect of olopatadine hydrochloride on chronic sinusitis, one patient, CT and subjective symptoms; type: in vivo, human; conditions: for improvement of symptoms (polyp, headache, right nasal obstruction, purulent nasal discharge, closure of right olfactory cleft): administration of Klaricid and Neuzym for 2 months or more, same patient, before olopatadine hydrochloride
Description: A patient diagnosed as chronic sinusitis was orally daily administered with olopatadine hydrochloride (Allelock™ 5 mg tablet; Kyowa Hakko Kogyo Co., Ltd.) alone in a dose of one tablet two times (after breakfast and before bedtime) a day (10 mg/day) everyday. Before the administration of olopatadine hydrochloride and 2 months after the administration, computed tomography (CT) was performed to observe changes in symptoms. […] In administration of Klaricid™ (general name: clarithromycin) and Neuzym™ (general name: lysozyme chloride) for 2 months or more, improvement of these symptoms were not observed.

[2] = test system: patient diagnosed as chronic sinusitis; test: Test Example 3: effect 2 on chronic sinusitis, one patient, 21-day schedule, plain radiography; type: in vivo, human
Description: A patient diagnosed as chronic sinusitis was administered with olopatadine hydrochloride (Allelock™ 5 mg tablet; Kyowa Hakko Kogyo Co., Ltd.) according to the prescription schedule below (21 days in total). 1. First 7 Days (Co-Administration) Three medicines were dosed together according to the following prescription. Also, frequently used SG granules were also prescribed. Olopatadine hydrochloride 5 mg tablet: oral dose of one tablet two times a day for 7 days (10 mg/day) Gatiflo™ (general name: gatifloxacin) 200 mg tablet: oral dose of one tablet two times a day for 4 days (400 mg/day) Mucodyne™ (general name: carbocysteine) 500 mg tablet: oral dose of one tablet three times a day for 7 days (1500 mg/day) 2. Next 14 Days (Single Administration of Olopatadine Hydrochloride) Furthermore, olopatadine hydrochloride was given according to the following prescription: Olopatadine hydrochloride 5 mg tablet: oral dose of one tablet two times a day for 14 days (10 mg/day) Plain radiography was conducted before the administration of the above medicines and 21 days after the administration to observe changes in the symptoms.

[3] = test system: patients with chronic sinusitis complicated with perennial allergic rhinitis; test: Test Example 2: degree of improvement in symptoms, 24 patients, eighth week; type: in vivo, human; conditions: oral 10 mg/day, other medicines may be combined
Description: Patients (24 patients, average age 33.8 years old, duration 61.5±59.7 days) with chronic sinusitis complicated with perennial allergic rhinitis were orally administered with olopatadine hydrochloride (Allelock™ 5 mg tablet; Kyowa Hakko Kogyo Co., Ltd.) in a dose of one tablet two times-(after breakfast and before bedtime) a day (10 mg/day) everyday. In this case, Mucodyne™ (general name: carbocysteine), Dasen™ (general name: serrapeptase), Polaramine™ (general name: d-chlorpheniramine maleate), Klaricid™ (general name: clarithromycin) or the like may be combined. The combined use with such a medicine was filled in a survey sheet. Such a medicine had been given for treatment before this test. At the eighth week of the administration, degrees of improvement in 1) sneezing, 2) nasal drip, 3) nasal obstruction, 4) interference with daily life, 5) mucosal swelling, 6) headache and head heaviness, and 7) postnasal drip were examined for each patient. The degree of each symptom determined with reference according to “Nasal Allergy Diagnosis Guideline for 2002 (Revised Fourth Edition)”, and the degree of improvement in each symptom was evaluated for each patient having a corresponding symptom before the administration on the basis of the four stages, i.e., disappearance, significant improvement, improvement, and no change. In the case of more than improvement (disappearance, significant improvement, or improvement), the rate of improvement was evaluated as “effective” and calculated as a rate (%) of an effective number of patients relative to the number of patients (number of cases) having a corresponding symptom before administration.

[4] = test system: patient diagnosed as chronic sinusitis; test: Test Example 4: effect 3 on chronic sinusitis, one patient, 35-day schedule, plain radiography; type: in vivo, human
Description: A patient diagnosed as chronic sinusitis was administered with olopatadine hydrochloride (Allelock™ 5 mg tablet; Kyowa Hakko Kogyo Co., Ltd.) according to the prescription schedule below (35 days in total). 1. First 7 Days (Co-Administration) Three medicines were dosed together according to the following prescription. Olopatadine hydrochloride 5 mg tablet: oral dose of one tablet two times a day for 7 days (10 mg/day) Gatiflo™ (general name: gatifloxacin) 200 mg tablet: oral dose of one tablet two times a day for 4 days (400 mg/day) Mucodyne™ (general name: carbocysteine) 500 mg tablet: oral dose of one tablet three times a day for 7 days (1500 mg/day) 2. Next 14 Days (Co-Administration) Two medicines were further dosed together according to the following prescription. Olopatadine hydrochloride 5 mg tablet: oral dose of one tablet two times a day for 14 days (10 mg/day) Mucodyne™ 500 mg table: oral dose of one tablet three times a day for 14 days (1500 mg/day) 3. Next 14 Days (Single Administration) Furthermore, olopatadine hydrochloride was given according to the following prescription: Olopatadine hydrochloride 5 mg table: oral dose of one tablet two times a day for 14 days (10 mg/day) Plain radiography was conducted before the administration of the above medicines and 35 days after the administration to observe changes in the symptoms.

[5] = test system: patient with chronic sinusitis complicated with allergic rhinitis; test: Test Example 5: transitions of symptoms, CT and plain radiography, one patient; type: in vivo, human; parameters: key to Color of inferior turbinate mucosa (objective symptom grade): +++: (Pale); ++: (Red); +: (Light red); −: (Normal); key to Postnasal drip (subjective symptom grade): +++: Always; ++: Frequently; +: Sometimes; −: No
Description: A patient with chronic sinusitis complicated with allergic rhinitis was orally administered with olopatadine hydrochloride (Allelock™ 5 mg tablet; Kyowa Hakko Kogyo Co., Ltd.) alone in a dose of one tablet two times a day for 2 months (10 mg/day). The patient had developed serious sneezing, nasal obstruction, and postnasal drip about 5 and half years ago. The patient discontinued treatment when the subjective symptoms were relieved by intermittent medication. However, improvements in the symptoms were not observed before the start of treatment by administration of the above olopatadine hydrochloride. In addition, in a nasal discharge eosinophil test (an intermediate state between clusters of eosinophils and observable weak dispersion of eosinophils in nasal discharge) and a scratch test (house dust, candida, cedar, and orchard grass), the patient was positive before the start of administration, and the chronic sinusitis of the patient was recognized to be complicated with allergic rhinitis. […] The degree of each symptom was decided on the basis of Tables 3 and 4 in reference to “Nasal Allergy Diagnosis Guideline for 2002 (Revised Fourth Edition)”. In addition, computed tomography (CT) was conducted before the administration of olopatadine hydrochloride and 1 month after and 2 months after the administration, and plain radiography (Waters method) was conducted before the administration of olopatadine hydrochloride and 2 months after the administration to observe changes in the symptoms.

[6] = test system: experimental allergic rhinitis model; conditions: guinea pigs; cited from earlier work
allergic rhinitis = conditions: Phase III test; cited from earlier work
[7] = first 7 days, co-administration with Gatiflo (gatifloxacin) and Mucodyne (carbocysteine), oral 10 mg/day
[8] = next 14 days, single administration, oral 10 mg/day
[9] = oral 10 mg/day alone for 2 months, one patient
[10] = next 14 days, co-administration with Mucodyne (carbocysteine), oral 10 mg/day
[11] = Two weeks after administration, oral 10 mg/day alone, before administration ++
[12] = single administration for 2 months, oral 10 mg/day

Question: Which “improvement of symptoms (polyp, headache, right nasal obstruction, purulent nasal discharge, closure of right olfactory cleft)” value [1] does the source give for lysozyme chloride [Neuzym] here?
Answer: not observed

Question: With `CN(C)CC/C=C1/c2ccccc2COc2ccc(CC(=O)O)cc21` [olopatadine hydrochloride] as the compound, how does the “shadows in the plain radiograph indicating sinusitis inflammation in the ethmoidal sinus and right and left maxillary sinuses” value ([2]; after a total of 21 days (7 days co-administration, 14 days single)) read?
Answer: completely disappeared

Question: And the “cheek pains (facial pain) and headache” value [2, 7]?
Answer: disappeared

Question: And the “nasal symptoms such as purulent nasal discharge and nasal obstruction” value [2, 7]?
Answer: improved

Question: And the “nasal mucosal swelling and the like” value [2, 8]?
Answer: unobserved

Question: What about the “nasal symptoms such as purulent nasal discharge and nasal obstruction” value [2, 8] of the same compound?
Answer: disappeared

Question: What about the “polyp and soft-tissue density mass which filled the right nasal cavity (CT image)” value [1, 9] of the same compound?
Answer: substantially disappeared

Question: What about the “soft-tissue density area which filled the right ethmoidal, right sphenoidal and right frontal sinus (CT image)” value [1, 9] of the same compound?
Answer: substantially disappeared

Question: And the “subjective symptoms such as nasal drip and headache” value [1, 9]?
Answer: disappeared

Question: And the “swelling of the inside wall toward the nasal cavity side, closure of the right olfactory cleft due to mucosal thickening (CT image)” value [1, 9]?
Answer: relieved

Question: What about the “Postnasal drip: Rate of improvement” value ([3]; 3 cases) of the same compound?
Answer: 100%

Question: And the “Postnasal drip: patients with Disappearance” value ([3]; 3 cases)?
Answer: 3

Question: And the “Postnasal drip: patients with Improvement” value ([3]; 3 cases)?
Answer: 0

Question: And the “Postnasal drip: patients with No change” value ([3]; 3 cases)?
Answer: 0

Question: What about the “Postnasal drip: patients with Significant improvement” value ([3]; 3 cases) of the same compound?
Answer: 0

Question: What about the “Headache, head heaviness: Rate of improvement” value ([3]; 5 cases) of the same compound?
Answer: 100%

Question: And the “Headache, head heaviness: patients with Disappearance” value ([3]; 5 cases)?
Answer: 5

Question: What about the “Headache, head heaviness: patients with Improvement” value ([3]; 5 cases) of the same compound?
Answer: 0

Question: What about the “Headache, head heaviness: patients with No change” value ([3]; 5 cases) of the same compound?
Answer: 0

Question: What about the “Headache, head heaviness: patients with Significant improvement” value ([3]; 5 cases) of the same compound?
Answer: 0

Question: And the “Sneezing: Rate of improvement” value ([3]; 12 cases)?
Answer: 91.7%

Question: And the “Sneezing: patients with Disappearance” value ([3]; 12 cases)?
Answer: 8

Question: What about the “Sneezing: patients with Improvement” value ([3]; 12 cases) of the same compound?
Answer: 3

Question: And the “Sneezing: patients with No change” value ([3]; 12 cases)?
Answer: 1

Question: What about the “Sneezing: patients with Significant improvement” value ([3]; 12 cases) of the same compound?
Answer: 0

Question: And the “Nasal drip: Rate of improvement” value ([3]; 15 cases)?
Answer: 73.3%

Question: And the “Nasal drip: patients with Disappearance” value ([3]; 15 cases)?
Answer: 4

Question: And the “Nasal drip: patients with Improvement” value ([3]; 15 cases)?
Answer: 5

Question: What about the “Nasal drip: patients with No change” value ([3]; 15 cases) of the same compound?
Answer: 4

Question: And the “Nasal drip: patients with Significant improvement” value ([3]; 15 cases)?
Answer: 2

Question: And the “Interference with daily life: Rate of improvement” value ([3]; 16 cases)?
Answer: 87.5%

Question: And the “Interference with daily life: patients with Disappearance” value ([3]; 16 cases)?
Answer: 3

Question: What about the “Interference with daily life: patients with Improvement” value ([3]; 16 cases) of the same compound?
Answer: 8

Question: What about the “Interference with daily life: patients with No change” value ([3]; 16 cases) of the same compound?
Answer: 2

Question: What about the “Interference with daily life: patients with Significant improvement” value ([3]; 16 cases) of the same compound?
Answer: 3

Question: And the “Mucosal Swelling: Rate of improvement” value ([3]; 16 cases)?
Answer: 87.5%

Question: And the “Mucosal Swelling: patients with Disappearance” value ([3]; 16 cases)?
Answer: 0

Question: What about the “Mucosal Swelling: patients with Improvement” value ([3]; 16 cases) of the same compound?
Answer: 13

Question: And the “Mucosal Swelling: patients with No change” value ([3]; 16 cases)?
Answer: 2

Question: And the “Mucosal Swelling: patients with Significant improvement” value ([3]; 16 cases)?
Answer: 1

Question: What about the “Nasal obstruction: Rate of improvement” value ([3]; 16 cases) of the same compound?
Answer: 87.5%

Question: And the “Nasal obstruction: patients with Disappearance” value ([3]; 16 cases)?
Answer: 4

Question: What about the “Nasal obstruction: patients with Improvement” value ([3]; 16 cases) of the same compound?
Answer: 7

Question: And the “Nasal obstruction: patients with No change” value ([3]; 16 cases)?
Answer: 2

Question: And the “Nasal obstruction: patients with Significant improvement” value ([3]; 16 cases)?
Answer: 3

Question: And the “shadows in the plain radiograph indicating sinusitis inflammation in the ethmoidal sinus and right and left maxillary sinuses” value ([4]; after a total of 35 days)?
Answer: completely disappeared

Question: What about the “left cheek pain (facial pain) and malaise” value [4, 7] of the same compound?
Answer: disappeared

Question: And the postnasal drip [4, 7]?
Answer: not improved

Question: What about the purulent nasal discharge [4, 7] of the same compound?
Answer: decreased and substantially disappeared

Question: What about the all subjective symptoms ([4]; last 14 days, single administration, oral 10 mg/day) of the same compound?
Answer: disappeared

Question: And the “nasal mucosal swelling and the like” value [4, 10]?
Answer: disappeared

Question: What about the “nasal symptoms such as purulent nasal discharge and postnasal drip” value [4, 10] of the same compound?
Answer: disappeared

Question: And the “Color of inferior turbinate mucosa (objective symptom grade)” value ([5]; One month after administration, oral 10 mg/day alone, before administration ++)?
Answer: −

Question: And the “Color of inferior turbinate mucosa (objective symptom grade)” value [5, 11]?
Answer: −

Question: And the “Postnasal drip (subjective symptom grade)” value [5, 11]?
Answer: +

Question: And the “mucosal swelling in the ethmoidal sinus and the maxillary sinus (CT image)” value ([5]; single administration for 1 month, oral 10 mg/day)?
Answer: significantly relieved

Question: And the “mucosal swelling in the ethmoidal sinus and the maxillary sinus (CT image)” value [5, 12]?
Answer: substantially disappeared

Question: What about the “shadows observed in the maxillary sinus indicating inflammation of chronic sinusitis (plain radiograph)” value [5, 12] of the same compound?
Answer: disappeared

Question: With `CC[C@H]1OC(=O)[C@H](C)[C@@H](O[C@H]2C[C@@](C)(OC)[C@@H](O)[C@H](C)O2)[C@H](C)[C@@H](O[C@@H]2O[C@H](C)C[C@H](N(C)C)[C@H]2O)[C@](C)(OC)C[C@@H](C)C(=O)[C@H](C)[C@@H](O)[C@]1(C)O` [Klaricid, clarithromycin] as the compound, how does the “improvement of symptoms (polyp, headache, right nasal obstruction, purulent nasal discharge, closure of right olfactory cleft)” value [1] read?
Answer: not observed

Question: Which nasal congestion reaction [6] does the source give for `CN(C)CC/C=C1/c2ccccc2COc2ccc(CC(=O)O)cc21` [compound 1, (Z)-11-(3-dimethylaminopropylidene)-6,11-dihydrodibenzo[b,e]oxepine-2-acetic acid] here?
Answer: inhibitory action

Question: What about the “nasal congestion of allergic rhinitis” value (allergic rhinitis) of the same compound?
Answer: highly improve
